# Data taken from ChEMBL document CHEMBL5665443, “Enzyme Inhibitor Single Concentration assay results for EUbOPEN Chemogenomics Library” (2024).
# What was measured:
# [1] = target: T1, Adenine DNA glycosylase (Homo sapiens) (UniProt Q9UIF7); conditions: Hit No;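 note: human MUTYH activity read as 594 nm fluorescence from cleavage and release of a quenched DNA duplex, coupled with APE1 for strand incision, lower signal meaning inhibition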
# T1 sequence (whole entry): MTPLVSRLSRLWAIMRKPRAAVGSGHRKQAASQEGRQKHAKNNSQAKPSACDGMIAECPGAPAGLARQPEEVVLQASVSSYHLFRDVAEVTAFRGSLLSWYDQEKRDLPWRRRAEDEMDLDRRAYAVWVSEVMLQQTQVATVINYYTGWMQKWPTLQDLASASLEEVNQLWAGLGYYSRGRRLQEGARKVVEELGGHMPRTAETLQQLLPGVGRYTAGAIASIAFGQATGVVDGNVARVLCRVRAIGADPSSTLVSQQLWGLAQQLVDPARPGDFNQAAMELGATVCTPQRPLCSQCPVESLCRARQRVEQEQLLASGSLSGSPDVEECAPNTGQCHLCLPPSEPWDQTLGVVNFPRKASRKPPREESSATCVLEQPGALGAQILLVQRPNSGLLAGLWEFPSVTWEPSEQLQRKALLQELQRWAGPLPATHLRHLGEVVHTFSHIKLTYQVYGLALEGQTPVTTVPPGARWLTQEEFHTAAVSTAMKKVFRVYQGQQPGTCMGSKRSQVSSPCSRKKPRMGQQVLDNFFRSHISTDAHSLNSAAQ
# Description: Inhibition of MUTYH by quantifying inhibition of MUTYH-mediated cleavage and dissociation of quenched duplex DNA oligonucleotides, measured as fluorescence at 594 nm. To generate a functional strand incision and increase turn-over this assay is coupled to APE1.
# [2] = target: T2, Endonuclease 8-like 2 (Homo sapiens) (UniProt Q969S2); conditions: Hit No;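 note: fluorescence at 594 nm reports NEIL2 cutting and release of a quenched double-stranded DNA oligo substrate, reduced signal read as inhibition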
# T2 sequence (whole entry): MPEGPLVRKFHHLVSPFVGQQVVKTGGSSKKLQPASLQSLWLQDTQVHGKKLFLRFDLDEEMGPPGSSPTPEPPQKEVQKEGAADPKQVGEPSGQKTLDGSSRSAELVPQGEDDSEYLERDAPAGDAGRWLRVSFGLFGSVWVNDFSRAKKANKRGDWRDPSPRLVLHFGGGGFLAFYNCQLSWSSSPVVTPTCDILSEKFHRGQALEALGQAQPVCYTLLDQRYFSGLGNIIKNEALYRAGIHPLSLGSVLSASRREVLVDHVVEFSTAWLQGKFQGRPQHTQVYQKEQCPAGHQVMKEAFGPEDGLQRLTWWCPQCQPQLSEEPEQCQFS
# Description: Inhibition of NEIL2 by quantifying inhibition of NEIL2-mediated cleavage and dissociation of quenched duplex DNA oligonucleotides, measured as fluorescence at 594 nm.
# [3] = target: Uracil-DNA glycosylase (Homo sapiens) (UniProt P13051); conditions: Hit No;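 note: UNG excision on a quenched double-stranded DNA oligo probe, with APE1 added for strand incision and turnover, read as fluorescence at 594 nm as strands separate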
# Chain of Uracil-DNA glycosylase (Homo sapiens) (P13051 whole entry): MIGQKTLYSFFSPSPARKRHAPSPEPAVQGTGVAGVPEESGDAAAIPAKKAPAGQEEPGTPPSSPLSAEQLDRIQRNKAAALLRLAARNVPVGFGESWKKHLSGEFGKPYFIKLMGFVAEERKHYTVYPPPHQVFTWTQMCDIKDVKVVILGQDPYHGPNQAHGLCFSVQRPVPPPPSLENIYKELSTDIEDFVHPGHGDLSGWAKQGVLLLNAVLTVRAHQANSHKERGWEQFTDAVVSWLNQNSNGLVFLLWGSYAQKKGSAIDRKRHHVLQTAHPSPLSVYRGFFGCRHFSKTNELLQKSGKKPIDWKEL
# Description: Inhibition of UNG by quantifying inhibition of UNG-mediated cleavage and dissociation of quenched duplex DNA oligonucleotides, measured as fluorescence at 594 nm. To generate a functional strand incision and increase turn-over this assay is coupled to APE1.
# [4] = target: Endonuclease 8-like 1 (Homo sapiens) (UniProt Q96FI4); conditions: Compound Concentration 10.0 uM, Hit No;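 note: fluorescence at 594 nm from quenched duplex DNA oligonucleotides released by NEIL1 cleavage and strand separation, reported as reduction of this enzyme activity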
# Chain of Endonuclease 8-like 1 (Homo sapiens) (Q96FI4 whole entry): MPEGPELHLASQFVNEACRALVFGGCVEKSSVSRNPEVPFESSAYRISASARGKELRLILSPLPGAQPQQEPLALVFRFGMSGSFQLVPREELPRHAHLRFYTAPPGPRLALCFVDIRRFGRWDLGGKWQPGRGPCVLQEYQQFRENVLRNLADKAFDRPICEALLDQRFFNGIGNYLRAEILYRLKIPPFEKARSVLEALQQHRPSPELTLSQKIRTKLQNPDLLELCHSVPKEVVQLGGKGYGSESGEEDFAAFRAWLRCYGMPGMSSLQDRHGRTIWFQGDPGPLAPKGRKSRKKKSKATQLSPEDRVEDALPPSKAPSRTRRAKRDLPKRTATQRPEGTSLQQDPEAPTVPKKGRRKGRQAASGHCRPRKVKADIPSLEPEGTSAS
# Description: Inhibition of NEIL1 by quantifying inhibition of NEIL1-mediated cleavage and dissociation of quenched duplex DNA oligonucleotides, measured as fluorescence at 594 nm.
# [5] = target: G/T mismatch-specific thymine DNA glycosylase (Homo sapiens) (UniProt Q13569); conditions: Hit No;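 note: human TDG cleavage of quenched duplex DNA oligonucleotides coupled to APE1, strand release read as fluorescence at 594 nm, inhibition of TDG activity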
# Chain of G/T mismatch-specific thymine DNA glycosylase (Homo sapiens) (Q13569 whole entry): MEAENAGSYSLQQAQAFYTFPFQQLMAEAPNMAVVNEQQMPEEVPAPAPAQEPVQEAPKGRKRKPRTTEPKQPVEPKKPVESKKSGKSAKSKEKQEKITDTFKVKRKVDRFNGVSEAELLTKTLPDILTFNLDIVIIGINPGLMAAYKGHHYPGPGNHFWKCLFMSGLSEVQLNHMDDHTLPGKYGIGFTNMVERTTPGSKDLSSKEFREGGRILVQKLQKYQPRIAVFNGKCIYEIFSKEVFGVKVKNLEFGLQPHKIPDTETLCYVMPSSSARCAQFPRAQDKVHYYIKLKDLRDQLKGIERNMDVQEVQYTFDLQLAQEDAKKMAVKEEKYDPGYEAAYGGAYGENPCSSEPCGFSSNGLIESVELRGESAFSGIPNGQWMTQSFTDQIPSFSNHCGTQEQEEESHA
# Description: Inhibition of TDG by quantifying inhibition of TDG-mediated cleavage and dissociation of quenched duplex DNA oligonucleotides, measured as fluorescence at 594 nm. To generate a functional strand incision and increase turn-over this assay is coupled to APE1.
# [6] = target: T3, Single-strand selective monofunctional uracil DNA glycosylase (Homo sapiens) (UniProt Q53HV7); conditions: Hit No;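 note: enzymatic SMUG1 assay coupled with APE1, reading fluorescence at 594 nm released when a quenched double-stranded DNA oligonucleotide substrate is cleaved and separated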
# T3 sequence (whole entry): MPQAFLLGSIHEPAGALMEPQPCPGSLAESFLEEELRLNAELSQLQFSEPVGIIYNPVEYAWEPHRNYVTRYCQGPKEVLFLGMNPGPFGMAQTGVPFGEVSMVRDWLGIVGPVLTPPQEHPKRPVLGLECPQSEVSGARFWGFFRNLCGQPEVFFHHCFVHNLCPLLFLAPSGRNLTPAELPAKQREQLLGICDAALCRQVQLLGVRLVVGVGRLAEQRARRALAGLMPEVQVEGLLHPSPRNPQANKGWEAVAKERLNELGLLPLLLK
# Description: Inhibition of SMUG1 by quantifying inhibition of SMUG1-mediated cleavage and dissociation of quenched duplex DNA oligonucleotides, measured as fluorescence at 594 nm. To generate a functional strand incision and increase turn-over this assay is coupled to APE1.
# [7] = target: N-glycosylase/DNA lyase (Homo sapiens) (UniProt O15527); conditions: Hit No;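 note: OGG1 cleavage of a quenched duplex DNA oligonucleotide, coupled to APE1 for strand incision, read as fluorescence at 594 nm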
# Chain of N-glycosylase/DNA lyase (Homo sapiens) (O15527 whole entry, the tested form may be a part): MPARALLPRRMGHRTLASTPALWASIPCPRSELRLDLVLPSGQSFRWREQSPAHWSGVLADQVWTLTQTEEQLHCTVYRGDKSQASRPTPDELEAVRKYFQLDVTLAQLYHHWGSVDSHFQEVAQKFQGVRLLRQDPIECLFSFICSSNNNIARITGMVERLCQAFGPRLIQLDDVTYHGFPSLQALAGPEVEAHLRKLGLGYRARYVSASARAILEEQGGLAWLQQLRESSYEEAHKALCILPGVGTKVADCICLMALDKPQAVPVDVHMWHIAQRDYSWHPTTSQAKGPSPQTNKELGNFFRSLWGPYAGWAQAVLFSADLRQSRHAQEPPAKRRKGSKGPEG
# Description: Inhibition of OGG1 by quantifying inhibition of OGG1-mediated cleavage and dissociation of quenched duplex DNA oligonucleotides, measured as fluorescence at 594 nm. To generate a functional strand incision and increase turn-over this assay is coupled to APE1.
# [8] = target: Methyl-CpG-binding domain protein 4 (Homo sapiens) (UniProt O95243); conditions: Hit No;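 note: MBD4 activity read as fluorescence at 594 nm from cleavage and release of a quenched duplex DNA oligonucleotide, with APE1 coupled to incise the strand and raise turnover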
# Chain of Methyl-CpG-binding domain protein 4 (Homo sapiens) (O95243 whole entry, the tested form may be a part): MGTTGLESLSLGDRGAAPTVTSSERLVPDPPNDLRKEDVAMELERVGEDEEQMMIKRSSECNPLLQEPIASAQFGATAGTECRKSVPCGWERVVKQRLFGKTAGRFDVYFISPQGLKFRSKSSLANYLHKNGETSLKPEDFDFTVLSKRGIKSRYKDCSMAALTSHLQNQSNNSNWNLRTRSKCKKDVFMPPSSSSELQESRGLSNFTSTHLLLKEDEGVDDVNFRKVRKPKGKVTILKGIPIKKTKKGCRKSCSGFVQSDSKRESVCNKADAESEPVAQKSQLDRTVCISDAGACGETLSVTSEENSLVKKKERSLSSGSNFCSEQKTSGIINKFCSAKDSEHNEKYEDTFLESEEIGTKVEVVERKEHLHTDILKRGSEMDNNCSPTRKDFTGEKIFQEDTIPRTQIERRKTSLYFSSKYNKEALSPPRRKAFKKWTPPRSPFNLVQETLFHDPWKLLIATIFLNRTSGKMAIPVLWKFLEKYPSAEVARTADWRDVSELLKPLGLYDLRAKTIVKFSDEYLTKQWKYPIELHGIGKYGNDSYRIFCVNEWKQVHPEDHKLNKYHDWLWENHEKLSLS
# Description: Inhibition of MBD4 by quantifying inhibition of MBD4-mediated cleavage and dissociation of quenched duplex DNA oligonucleotides, measured as fluorescence at 594 nm. To generate a functional strand incision and increase turn-over this assay is coupled to APE1.
# [9] = target: T4, Endonuclease III-like protein 1 (Homo sapiens) (UniProt P78549); conditions: Hit No;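 note: enzyme assay tracking NTHL1 cutting and release of a quenched double-stranded DNA oligo substrate, read as fluorescence at 594 nm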
# T4 sequence (whole entry): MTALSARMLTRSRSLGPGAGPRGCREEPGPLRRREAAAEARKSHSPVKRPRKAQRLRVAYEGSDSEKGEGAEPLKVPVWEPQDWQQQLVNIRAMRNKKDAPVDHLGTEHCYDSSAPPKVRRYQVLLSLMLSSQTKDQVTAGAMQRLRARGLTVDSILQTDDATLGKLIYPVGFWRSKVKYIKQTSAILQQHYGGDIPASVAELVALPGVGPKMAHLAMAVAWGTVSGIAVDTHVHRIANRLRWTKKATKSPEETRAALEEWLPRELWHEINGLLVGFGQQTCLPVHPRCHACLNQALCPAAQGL
# Description: Inhibition of NTHL1 by quantifying inhibition of NTHL1-mediated cleavage and dissociation of quenched duplex DNA oligonucleotides, measured as fluorescence at 594 nm.
SMILES,inhibition ([1]; Compound Concentration 10.0 uM) [%],inhibition ([2]; Compound Concentration 10.0 uM) [%],inhibition ([3]; Compound Concentration 10.0 uM) [%],inhibition [4] [%],inhibition ([5]; Compound Concentration 10.0 uM) [%],inhibition ([6]; Compound Concentration 10.0 uM) [%],inhibition ([7]; Compound Concentration 10.0 uM) [%],inhibition ([8]; Compound Concentration 10.0 uM) [%],inhibition ([9]; Compound Concentration 10.0 uM) [%],inhibition ([1]; Compound Concentration 1.0 uM) [%],inhibition ([2]; Compound Concentration 1.0 uM) [%],inhibition ([3]; Compound Concentration 1.0 uM) [%],inhibition ([5]; Compound Concentration 1.0 uM) [%],inhibition ([6]; Compound Concentration 1.0 uM) [%],inhibition ([7]; Compound Concentration 1.0 uM) [%],inhibition ([8]; Compound Concentration 1.0 uM) [%],inhibition ([9]; Compound Concentration 1.0 uM) [%]
C[C@@H]1C[C@H](C)CN(c2ncc(Cl)c(Nc3ccc4c(c3)cc(OC(C)(C)C(=O)O)c(=O)n4C)n2)C1,18.2,8.19,7.75,-5.89,69.6,17.6,19.3,73.2,-6.88,–,–,–,–,–,–,–,–
CC(C)NC(=O)N1CC[C@H](NC2=Nc3cc(F)ccc3N(CC(F)F)c3ccc(Cl)cc32)C1,13.1,-0.0337,8.59,-1.58,62.4,26.7,-3.5,0.374,4.27,–,–,–,–,–,–,–,–
CC(=O)Nc1nc(CN2CCC[C@H](Cc3cc(C)nc(C)c3)C2)cs1,17.8,3.85,7.98,1.68,45.8,19,13.6,81.4,9.23,–,–,–,–,–,–,–,–
O=C1CCc2cc(Nc3cc(OC4CCOCC4)c([N+](=O)[O-])cc3Cl)ccc2N1,12.7,4.87,4.09,–,79.3,24.3,46.7,65.2,5.94,–,–,–,–,–,–,–,–
O=C(O)Cc1cc(I)c(Oc2ccc(O)c(I)c2)c(I)c1,-6.77,-3.55,3.85,–,40.4,30.4,32.3,63.6,15.2,–,–,–,–,–,–,–,–
Cn1cc(C(=O)O)c2ccc(N3CCC(OCc4c(-c5c(Cl)cccc5Cl)noc4C4CC4)CC3)cc21,2.96,0.531,-3.65,–,99.9,-2.05,24,64.1,8.57,–,–,–,–,–,–,–,–
CN(C)C(=O)/C(C#N)=C/c1ccc(-c2nc3cnc4[nH]ccc4c3n2C2CCCCC2)o1,–,–,–,–,–,–,–,–,–,-2.18,-0.572,8.33,70.6,29.1,10.1,2.33,-5.49
COc1cc(F)ccc1-c1ncnc(Nc2cccc(C[S@](C)(=N)=O)c2)n1,-2.6,-10,2.17,–,49.6,21.4,9.82,-7.86,-0.61,–,–,–,–,–,–,–,–
O=C(N1CCS(=O)(=O)CC1)N1C[C@H](c2ccc(OC(F)(F)F)cc2)C[C@H](c2nc(C3CC3)no2)C1,1.64,-9.67,-2.41,–,56.4,9.87,1.66,55.6,-9.83,–,–,–,–,–,–,–,–
CC(=O)Nc1c(C(C)=O)c(=O)n(C)c2nc(-c3ccc(Cl)cc3Cl)c(-c3ccc(Cl)cc3)cc12,22.8,5.63,1.63,–,47.2,9.09,2.2,61,-6.55,–,–,–,–,–,–,–,–
Cc1cc(OC2CCS(=O)(=O)CC2)cc(C)c1-c1cccc(COc2ccc(CCC(=O)O)c(F)c2)c1,3.94,-9.42,3.54,–,45.8,12.1,48.4,58.2,-0.63,–,–,–,–,–,–,–,–
